# Like-named read-outs stand apart in the source and are kept apart here.
# Assays:
# [1] = prolongation of life in acute global ischemic syndrome by intravenous injection of magnesium chloride; type: in vivo; conditions: mice; for minimal effective dose: Mus musculus
# Experimental: The compounds of general formula I are tested by their capacity to prolong the life of mice submitted to an acute global ischemic syndrome by intravenous injection of magnesium chloride.
# [2] = cerebral oedema by hypoperfusion of 1 hour (ischemic syndrome) or by triethyl tin per os; type: in vivo; conditions: reference substances
# cortical electrogenesis = test: iterative anoxias test (losses of cortical electrogenesis); type: in vivo; conditions: rats, administered intravenously
# Experimental: The protective activity vis-a-vis the losses of cortical electrogenesis connected to the ischemic or hypoxic syndrome is evaluated by the iterative anoxias test in rats. […] After the second anoxia, whilst the control animals no longer recuperate their electrocortical activity, the animals treated with the compounds in particular the compounds described in Examples 30, 37, 38, 40 and 54 recover it when they have received by IV perfusion 33 micro g/kg of these. The reference substances only restore it later, at the 120th second for eburnamonine or nicergoline.
# [3] = system: mitochondrias of the cerebral cortex; test: oxidative phosphorylation capacity of mitochondrias of the cerebral cortex after an ischemic syndrome; type: in vivo, rats; conditions: ischemied rat, reference products
# Text: These same compounds show their pharmacological action vis-a-vis losses of the oxidative phosphorylation capacity of mitochondrias of the cerebral cortex obtained after an ischemic syndrome in rats. […] The same activity is only obtained for the reference products with dihydroergotoxine.
# [4] = survival in acute global hypoxic syndrome due to inhalation of pure azote; type: in vivo; conditions: Mus musculus; mice, intraperitoneal route or per os; read-out: average effective dose (ED50) increasing the survival time by 50% in relation to the control animals
# Experimental: In the same way, the compounds of general formula I show a protective effect in mice during an acute global hypoxic syndrome due to inhalation of pure azote. The beneficial action is seen at the same doses as for the previous test. The same effective dose relation is found with the reference substances.
# The average effective dose (ED50) increasing the survival time by 50% in relation to the control animals is approximately 3 mg/kg when these compounds are administered by intraperitoneal route or per os particularly with the compounds of Examples 38, 40, 51 and 54 described herein after.
# [5] = ip, intraperitoneal route, MgCl2 i.v., read-out: dose from which life of ischemied mice is significantly prolonged
Molecule,"minimal effective dose [1, 5]",ED50 [4],further results
"COc1ccccc1N1CCN(CCc2ccc(OS(C)(=O)=O)c3c2CCCN3)CC1 [Example 30, 5-{2-[4-(2-methoxyphenyl)piperazinyl]ethyl}-8-methylsulfonyloxy-1,2,3,4-tetrahydro quinoline]",1 mg/kg,–,–
CO[C@]12C[C@@H](COC(=O)c3cncc(Br)c3)CN(C)[C@@H]1Cc1cn(C)c3cccc2c13 [nicergoline],–,–,higher dose needed for equally intense anti-oedema protective activity (relative to the compounds) [2]: 3 times more
dihydroergotoxine,–,–,"effective dose per os (inactive up to / no effect below) ([1]; per os, reference substances): > 10 mg/kg; activity in iterative anoxias test compared with the compounds (cortical electrogenesis): comparable activity; activity on mitochondrial oxygen consumption compared with the compounds [3]: same activity"
"CC(=O)N1CCCc2c(CCN3CCN(c4ccccn4)CC3)ccc(O)c21 [Example 38, 1-acetyl-5-{2-[4-(2-pyridyl)piperazinyl]ethyl}-8-hydroxy-1,2,3,4-tetrahydro quinoline]",1 mg/kg,~3 mg/kg,–
"COc1ccccc1N1CCN(CCc2ccc(O)c3c2CCCN3C)CC1 [Example 51, 1-methyl-5-{2-[4-(2-methoxyphenyl)piperazinyl]ethyl}-8-hydroxy-1,2,3,4-tetrahydro quinoline]",–,~3 mg/kg,–
"COc1ccccc1N1CCN(CCc2ccc(OC)c3c2CCCN3C=O)CC1 [Example 54, 1-formyl-5-{-2-[4-(2-methoxyphenyl)piperazinyl]ethyl}-8-methoxy-1,2,3,4-tetrahydro quinoline]",1 mg/kg,~3 mg/kg,–
"CC[C@]12CCCN3CCc4c(n(c5ccccc45)[C@@](O)(C(=O)OC)C1)[C@@H]32 [vincamine, reference compound]",–,–,"minimal effective dose ([1]; po, per os, reference substances, read-out: effective dose per os (inactive up to / no effect below)): ≥ 100 mg/kg; higher dose needed for equally intense anti-oedema protective activity (relative to the compounds) [2]: 5 times more"
"COc1ccccc1N1CCN(CCc2ccc(OC)c3c2CCCN3C(C)=O)CC1 [Example 40, 1-acetyl-5-{2-[4-(2-methoxyphenyl)piperazinyl]ethyl}-8-methoxy-1,2,3,4-tetrahydro quinoline]",1 mg/kg,~3 mg/kg,–
